Measured values published in patent US8263622B2, “Fused-ring derivative and medical application of same” (Kissei Pharmaceutical Co., Ltd., priority 2008, dated 2012).

Key:
[1] = target: T1, Xanthine oxidase (from bovine milk, Sigma) (Bos taurus, UniProt P80457); assay: Xanthine oxidase inhibitory activity; format: biochemical; conditions: xanthine substrate, absorbance at 290 nm, 10 minutes at room temperature
T1 construct: Xanthine oxidase (from bovine milk, Sigma); purchased Sigma; host or cells: bovine milk
Description: (1) Preparation of Test Compounds
Test compounds were dissolved in DMSO (Wako) at 40 mM concentration and then diluted to intended concentrations with phosphate-buffered saline (PBS).
(2) Method for Measurement
Xanthine oxidase (from bovine milk, Sigma) was prepared with phosphate-buffered saline (PBS) at 0.02 units/mL, and then the solution was added to 96 well plates at 50 μL/well. In addition, test compounds diluted with PBS were added at 50 μL/well. Xanthine (Wako) at 200 μM prepared with PBS was added at 100 μL/well, and the reaction was measured for 10 minutes at room temperature. Absorbance at 290 nm was measured using a microplate reader SpectraMax Plus 384 (Molecular device). The absorbance under a condition without xanthine is 0%, and control without test compounds is 100%. Fifty % inhibitory concentration (IC50) of test compounds was calculated (Table 11). Ex. No. in the table indicates example number.

human URAT1 = target: T2, human URAT1 (Homo sapiens, UniProt Q96S37); assay: Inhibitory activity of uric acid transport with human URAT1 expressing cells; format: cell-based; conditions: COS-7; concentration of 100 μM; 14C-uric acid uptake (20 μM) in COS7 cells transiently expressing human URAT1, 5 minutes, 37° C.; read-out: Percent inhibition
T2 construct: expressed in transfected cells; host or cells: COS7 cells (RIKEN CELL BANK RCB0539), transient, pcDNA3.1
T2 sequence (Q96S37 1-553): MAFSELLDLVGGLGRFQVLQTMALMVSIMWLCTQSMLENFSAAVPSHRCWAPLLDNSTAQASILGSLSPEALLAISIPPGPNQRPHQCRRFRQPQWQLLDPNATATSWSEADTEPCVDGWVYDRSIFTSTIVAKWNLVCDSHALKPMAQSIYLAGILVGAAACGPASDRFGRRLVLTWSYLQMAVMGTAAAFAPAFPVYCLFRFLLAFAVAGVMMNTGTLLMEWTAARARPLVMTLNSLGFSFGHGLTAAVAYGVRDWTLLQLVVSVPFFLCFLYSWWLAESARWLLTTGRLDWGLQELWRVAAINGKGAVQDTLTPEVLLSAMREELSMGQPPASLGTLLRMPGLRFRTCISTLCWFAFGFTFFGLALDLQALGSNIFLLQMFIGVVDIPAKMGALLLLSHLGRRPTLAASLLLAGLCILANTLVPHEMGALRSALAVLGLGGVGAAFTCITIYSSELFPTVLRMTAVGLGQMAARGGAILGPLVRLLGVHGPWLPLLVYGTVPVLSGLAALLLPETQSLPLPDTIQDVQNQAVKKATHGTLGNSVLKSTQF
Description: (1) Preparation of Transiently Human URAT1 Expressing Cells
Full length human URAT1 cDNA (NCBI Accession No. NM_144585) was subcloned into expression vector, pcDNA3.1 (Invitrogen). Human URAT1 expression vector was transfected into COS7 cells (RIKEN CELL BANK RCB0539) using Lipofectamine 2000 (Invitrogen). COS7 cells were seeded in collagen-coated 24 well plates (Japan Becton Dickinson) at 90-95% confluency and cultured in D-MEM culture medium (Invitrogen) containing 10% fetal bovine serum (Sanko Junyaku) for 2 hours at 37° C. under the condition of 5% CO2. For 1 well, 2 μL of Lipofectamine 2000 was diluted in 50 μL of OPTI-MEM (Invitrogen) and allowed to stand at room temperature for 7 minutes (hereinafter referred to as Lipo2000-OPTI). For 1 well, 0.8 μg of human URAT1 expression vector was diluted in 50 μL of OPTI-MEM (Invitrogen) and combined gently with Lipo2000-OPTI. After standing at room temperature for 25 minutes, the mixture was added to COS7 cells at 100 μL/well. Furthermore, COS7 cells were cultured for 2 days at 37° C. under the condition of 5% CO2 and used for measuring inhibitory activity on the uptake.
(2) Preparation of Test Compounds
Test compounds were dissolved in DMSO (Wako) at 10 mM concentration and then diluted to 2 times higher concentration than intended with pre-treatment buffer (125 mM sodium gluconate, 4.8 mM potassium gluconate, 1.2 mM potassium dihydrogen phosphate, 1.2 mM magnesium sulfate, 1.3 mM calcium gluconate, 5.6 mM glucose, 25 mM Hepes, pH 7.4). Pre-treatment buffer without test compounds was used for control. In addition, an equal volume of pre-treatment buffer containing ^14C-labeled uric acid (American Radiolabeled Chemicals, Inc.) was added to test compounds and control, and finally assay buffer including 20 μM uric acid was prepared.
(3) Method for Measurement
All tests were performed on hot-plate at 37° C. Pre-treatment buffer and assay buffer were incubated at 37° C. and then used for assays. Medium was removed from plates, and 700 μL of pre-treatment buffer was added, and the cells were pre-incubated for 10 minutes. After repeating same step, pre-treatment buffer was removed, and assay buffer was added at 400 μL/well. The uptake reaction was carried out for 5 minutes. After terminating the reaction, assay buffer was rapidly removed, and the cells were washed twice with addition of ice-cold pre-treatment buffer at 1.2 mL/well. Then, the cells were lysed by addition of 0.2N sodium hydroxide at 300 μL/well. The lysed solutions were transferred into Picoplate (PerkinElmer), and Microscinti 40 (PerkinElmer) was added at 600 μL/well. After mixing, the radioactivity was counted in a liquid scintillation counter (PerkinElmer). The radioactivity in COS7 cells not transfected with URAT1 expression vector was also counted under the same condition as control. […] As a result, it was shown that all Examples 2, 6, 7, 12, 13, 15, 22 and 31 have over 80% inhibition in a concentration of 100 μM. Percent inhibition (%)=[1−(B−C)/(A−C)]×100 A: Radioactivity in control B: Radioactivity in the case of addition of test compounds C: Radioactivity in COST cells not transfected with URAT1 expression vector

T1 sequence (P80457 whole entry): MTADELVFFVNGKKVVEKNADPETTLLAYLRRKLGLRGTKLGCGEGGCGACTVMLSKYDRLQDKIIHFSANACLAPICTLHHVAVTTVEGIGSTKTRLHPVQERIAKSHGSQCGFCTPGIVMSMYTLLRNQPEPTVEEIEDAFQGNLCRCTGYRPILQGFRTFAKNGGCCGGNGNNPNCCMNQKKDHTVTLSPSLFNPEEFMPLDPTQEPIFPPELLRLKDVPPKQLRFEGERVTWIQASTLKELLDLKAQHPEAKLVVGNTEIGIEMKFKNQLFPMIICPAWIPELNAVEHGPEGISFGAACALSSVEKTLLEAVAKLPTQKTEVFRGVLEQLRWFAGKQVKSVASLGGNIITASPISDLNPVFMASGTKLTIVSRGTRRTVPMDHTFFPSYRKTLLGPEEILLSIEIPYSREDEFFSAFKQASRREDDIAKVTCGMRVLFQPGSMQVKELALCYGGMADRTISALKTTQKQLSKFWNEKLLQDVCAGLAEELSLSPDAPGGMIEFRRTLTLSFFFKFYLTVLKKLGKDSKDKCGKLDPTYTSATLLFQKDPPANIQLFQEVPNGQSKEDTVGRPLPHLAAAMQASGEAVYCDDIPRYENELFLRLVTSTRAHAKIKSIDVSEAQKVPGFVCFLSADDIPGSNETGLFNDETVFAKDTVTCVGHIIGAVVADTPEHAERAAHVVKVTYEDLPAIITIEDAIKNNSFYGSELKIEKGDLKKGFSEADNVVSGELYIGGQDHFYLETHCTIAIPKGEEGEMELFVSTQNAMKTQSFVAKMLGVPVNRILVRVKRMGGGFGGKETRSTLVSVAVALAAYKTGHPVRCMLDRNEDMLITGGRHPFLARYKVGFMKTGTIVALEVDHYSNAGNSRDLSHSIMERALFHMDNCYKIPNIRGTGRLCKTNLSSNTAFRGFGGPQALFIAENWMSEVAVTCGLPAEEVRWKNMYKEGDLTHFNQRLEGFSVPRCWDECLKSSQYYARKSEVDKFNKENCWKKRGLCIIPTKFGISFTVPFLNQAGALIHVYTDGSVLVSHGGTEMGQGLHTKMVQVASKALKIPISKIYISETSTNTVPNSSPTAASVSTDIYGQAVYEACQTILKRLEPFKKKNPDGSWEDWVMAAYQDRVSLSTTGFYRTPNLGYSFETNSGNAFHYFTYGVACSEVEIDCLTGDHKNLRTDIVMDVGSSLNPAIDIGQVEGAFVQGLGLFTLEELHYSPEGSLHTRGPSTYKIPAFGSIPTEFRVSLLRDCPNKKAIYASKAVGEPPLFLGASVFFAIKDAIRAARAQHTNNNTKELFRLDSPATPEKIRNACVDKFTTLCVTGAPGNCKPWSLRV

Structure (SMILES) | IC50 [1] | inhibition at 100 µM (human URAT1)
Cc1nc(-c2cc(C#N)c3c(F)cccc3c2)sc1C(=O)O [Example 22] | 7 nM | > 80%
Cc1nc(-c2cc(C#N)c3c(C)ccc(F)c3c2)sc1C(=O)O [Example 15] | 7 nM | > 80%
Cc1nc(-c2cc(C#N)c3cccc(F)c3c2)sc1C(=O)O [Example 13] | 8 nM | > 80%
Cc1ccc2c(C#N)cc(-c3nc(C)c(C(=O)O)s3)cc2c1 [Example 9] | 26 nM | 
Cc1ccc2cc(-c3nc(C)c(C(=O)O)s3)cc(C#N)c2c1 [Example 8, 2-(4-Cyano-6-methylnaphthalene-2-yl)-4-methylthiazole-5-carboxylic acid] | 11 nM | 
Cc1nc(-c2cc(C#N)c3ccccc3c2)sc1C(=O)O [Example 7, 2-(4-Cyanonaphthalene-2-yl)-4-methylthiazole-5-carboxylic acid] | 7 nM | > 80%
N#Cc1cc(-c2cc(C(=O)O)ccn2)cc2ccccc12 [Example 1, 2-(4-Cyanonaphthalene-2-yl)isonicotinic acid] | 11 nM | 
N#Cc1cc(-c2ccc(C(=O)O)cc2)nc2ccccc12 [Example 5, 4-(4-Cyanoquinoline-2-yl)benzoic acid] | 81 nM | 
Cc1nc(-c2cc(C#N)c3ccc(F)cc3c2)sc1C(=O)O [Example 12] | 4 nM | > 80%
N#Cc1cc(-c2ncc(C(=O)O)s2)cc2ccccc12 [Example 31] | 2 nM | > 80%
N#Cc1cc(-c2ccc(C(=O)O)cc2)cc2ccccc12 [Example 4, 4-(4-Cyanonaphthalene-2-yl)benzoic acid] | 20 nM | 
N#Cc1cc(-c2cc(C(=O)O)c(O)cn2)cc2ccccc12 [Example 2, 2-(4-Cyanonaphthalene-2-yl)-5-hydroxyisonicotinic acid] | 13 nM | > 80%
N#Cc1cc(-c2ccc(C(=O)O)c(O)c2)nc2ccccc12 [Example 6, 4-(4-Cyanoquinoline-2-yl)-2-hydroxy-benzoic acid] | 8 nM | > 80%
